Measurements as given in publication PMC12030706, “Novel ^177Lu-Labeled [Thz^14]Bombesin(6–14) Derivatives with Low Pancreas Accumulation for Targeting Gastrin-Releasing Peptide Receptor-Expressing Cancer” (Pharmaceuticals, 2025).

Columns and labels:
GRPR (PC-3 cells) = molecular target: T1, GRPR (PC-3 cells) (Homo sapiens, UniProt P30550); test: Fluorometric intracellular calcium release assay; format: cell-based; conditions: 50 nM, n = 3
T1 construct: GRPR-expressing prostate cancer PC-3 cells; host or cells: PC-3 prostate adenocarcinoma cells
Protocol: The antagonist/agonist characteristics of Lu-TacsBOMB5, Lu-LW01110, and Lu-LW01142 were determined following previously published procedure. A 96-well clear bottom black plate was seeded with 5 × 10^4 PC-3 prostate cancer cells/100 μL/well 24 h prior to the assay. The calcium-sensitive dye (FLIPR Calcium 6 assay kit from Molecular Devices, San Jose, CA, USA) in loading buffer (100 μL/well) was added into the 96-well plate, followed by 1 h incubation at 37 °C. After that, the plate was transferred into a FlexStation 3 microplate reader (Molecular Devices, San Jose, CA, USA). Lu-complexed nonradioactive standard (50 nM), [D-Phe^6,Leu-NHEt^13,des-Met^14]Bombesin(6–14) (50 nM, antagonist control), bombesin (50 nM, agonist control), adenosine triphosphate (ATP, 50 nM, positive control), or DPBS (blank control) was added, and the fluorescent signals were acquired for 2 min (λEx = 485 nm; λEm = 525 nm; n = 3). The relative fluorescent unit (RFU = max − min) was calculated to determine the agonistic/antagonistic characteristics for the tested ligands.

PC-3 tumor xenografts = conditions: in vivo, 1 h; cited from earlier work

T1 sequence (P30550 whole entry): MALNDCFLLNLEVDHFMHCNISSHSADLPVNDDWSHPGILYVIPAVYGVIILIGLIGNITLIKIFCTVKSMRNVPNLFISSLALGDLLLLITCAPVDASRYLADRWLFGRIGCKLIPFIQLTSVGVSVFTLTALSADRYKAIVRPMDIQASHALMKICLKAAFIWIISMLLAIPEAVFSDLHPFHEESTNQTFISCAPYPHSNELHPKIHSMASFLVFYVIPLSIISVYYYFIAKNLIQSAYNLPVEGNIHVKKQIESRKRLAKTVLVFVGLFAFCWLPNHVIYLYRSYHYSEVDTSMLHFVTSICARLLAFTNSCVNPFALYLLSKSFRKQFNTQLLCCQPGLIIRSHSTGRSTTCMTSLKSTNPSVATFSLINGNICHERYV

Row | Compound | Ca2+ efflux (RFU = max − min) (GRPR (PC-3 cells)) | uptake in PC-3 tumor xenografts (PC-3 tumor xenografts)
1 | Nc1ncnc2c1ncn2[C@@H]1O[C@H](COP(=O)(O)OP(=O)(O)OP(=O)(O)O)[C@@H](O)[C@H]1O [ATP, adenosine triphosphate] | 150 ± 40.7 RFUs | 
2 | [D-Phe^6,Leu-NHEt^13,des-Met^14]Bombesin(6–14) | 29.7 ± 2.73 RFUs | 
3 | ^68Ga-DOTA-Pip-[D-Phe^6,NMe-Gly^11,Leu^13ψThz^14]Bombesin(6–14) [[^68Ga]Ga-TacsBOMB5] |  | 15.7 ± 2.17 %ID/g
4 | bombesin | 235 ± 15.2 RFUs | 
5 | ^68Ga-DOTA-Pip-[D-Phe^6,Tle^10,NMe-His^12,Thz^14]Bombesin(6–14) [[^68Ga]Ga-LW01110] |  | 16.6 ± 1.60 %ID/g
